T1: human Frataxin (FXN) (Homo sapiens, UniProt Q16595)
T1 construct: D91-A210, N-terminal 6xHis-GST tag cut with thrombin; E. coli BL21; 15N-labelled
T1 sequence (Q16595 91-210): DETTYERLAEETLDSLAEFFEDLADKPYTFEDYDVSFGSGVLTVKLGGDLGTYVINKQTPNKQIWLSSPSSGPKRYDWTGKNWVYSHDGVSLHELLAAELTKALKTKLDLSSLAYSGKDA

B1: human ferrochelatase (residues R65 to L423) (enzyme, UniProt P22830 65-423, looked up)
chain: RKPKTGILMLNMGGPETLGDVHDFLLRLFLDRDLMTLPIQNKLAPFIAKRRTPKIQEQYRRIGGGSPIKIWTSKQGEGMVKLLDELSPNTAPHKYYIGFRYVHPLTEEAIEEMERDGLERAIAFTQYPQYSCSTTGSSLNAIYRYYNQVGRKPTMKWSTIDRWPTHHLLIQCFADHILKELDHFPLEKRSEVVILFSAHSLPMSVVNRGDPYPQEVSATVQKVMERLEYCNPYRLVWQSKVGPMPWLGPQTDESIKGLCERGRKNILLVPIAFTSDHIETLYELDIEYSQVLAKECGVENIRRAESLNGNPLFSKALADLVHSHIQSNELCSKQLTLSCPLCVNPVCRETKSFFTSQQL
notes: ferrochelatase, human, residues R65 to L423; Eluted as a homodimer (88 kDa); The tag is inferred; no cleavage is described; also called FCH; FECH; source: recombinant expression from pET28a in Luria-Bertani media, purified (cobalt HisTrap, gel filtration)

Assays:
human Frataxin (FXN) = target: T1, human Frataxin (FXN); experiment: NMR 1H-15N SOFAST-HMQC titration, chemical shift perturbation, Hill fit; format: binding
[1] = target: the molecule itself; experiment: SEC; Sd200/16/600 gel filtration column, last step of the purification; buffer with 50 mM MOPS-Tris pH 8.0, 100 mM KCl, 1% sodium cholate, 10% glycerol, 100 uM TCEP

Molecule | EC50 (human Frataxin (FXN)) [µM] | stoichiometry N [1]
C=CC1=C(C)c2cc3[nH]c(cc4nc(cc5[nH]c(cc1n2)c(C)c5CCC(=O)O)C(CCC(=O)O)=C4C)c(C)c3C=C [Protoporphyrin IX] | 140 | 
B1 |  | 2
